Experimental data from US8951529B2, “Methods of using small compounds to enhance myeloid derived suppressor cell function for treating autoimmune diseases” (Icahn School of Medicine at Mount Sinai, priority 2009, dated 2015).

What was measured:
multiple sclerosis = conditions: GA alone, Johnson et al. (1995); cited from earlier work
IBD = conditions: GA alone, clinical studies discontinued; cited from earlier work
Gr-1+CD115+ MDSCs = experiment: Cytokine production by IFN-γ stimulated MDSCs (ELISA); assay type: cell-based, mouse; conditions: IFN-γ stimulation, 24 hours, FIG. 3A
Experimental: Sorted Gr-1+CD115+ MDSCs from tumor-bearing mice were stimulated with IFN-γ in the absence or presence of GA, SP600125, or both. Twenty-four hours after stimulation, culture supernatants were collected and the concentrations of IL-10, TGF-β, IL-6, and IL-23 were determined by ELISA (R&D Systems).
It was next determined whether GA, SP600125, or both exert an effect on cytokine production by MDSCs. Sorted Gr-1+CD115+ MDSCs from tumor-bearing mice were stimulated with IFN-γ in the absence or presence of GA, SP600125, or both. Twenty-four (24) hours after stimulation, culture supernatants were collected and the concentrations of IL-10, TGF-β, IL-6, and IL-23 were determined by ELISA (R&D Systems®). GA or SP600125 alone was capable of enhancing the secretion of IL-10 and TGF-β while decreasing IL-6 and IL-23 production by MDSCs in vitro (FIG. 3A).

[1] = tested on: MDSCs derived from TRIF KO mice; conditions: OVA peptide, CD4 OVA TCR splenocytes, 5 days, FIG. 9D
Experimental: TRIF is upstream of IRF-3. MDSCs derived from wild type or TRIF KO mice were cultured in the presence of OVA peptide and CD4 OVA TCR transgenic splenocytes for 5 days. Cells were stained with primary antibody specific for Foxp3, CD4 and CD25 and analyzed by flow cytometry.

DSS-induced colitis = DSS-induced colitis in vivo model; set-up: species or system C57BL/6 mice
Excerpt: In certain aspects, the invention is related to the treatment of IBDs. Mouse models of IBD are well known in the art, and may be used to model human IBDs. For example, dextran sodium sulfate (DSS) may be administered to mice to induce IBD. In this model, mice are fed with water containing 3.5% DSS from day 0 to day 11. Following treatment, mice develop colitis. The severity of colitis is quantified (assigned a clinical score) by assessing stool consistency, bleeding, and weight loss, which ranges from 0 (healthy) to 4 (maximal severity). Histologically, DSS produces submucosal erosions, ulceration, inflammatory cell infiltration and crypt abscess as well as epithelioglandular hyperplasia. […] [Kawada et al., 2007, World J. Gastroenterol. 13: 5581-5593; Okayasu et al., 1990, Gastroenterology 98:694-702]
For adoptive transfer of MDSCs, 5×10^6 purified MDSCs suspended in PBS were administered by intravenous infusion at day 0 and day 7.
Mice were left untreated or treated with sorted MDSCs (5×10^6 cells/mouse) alone or in combination with GA and/or SP600125 (Sigma-Aldrich), on the day of disease induction. […] The severity of colitis was quantitated as a clinical score by assessing stool consistency, bleeding, and weight loss, which ranges from 0 (healthy) to 4 (maximal severity). The clinical score (weight loss, stool consistency, and bleeding) of treated mice was assessed in a double-blind fashion.
On day 11 post-IBD induction, colon tissues from treated mice were removed, fixed in 3% formaldehyde, sectioned, and stained with H&E staining to determine the pathology score of colitis. To reflect the general condition of the mice, a disease activity index (DAI) was determined by an investigator blinded to the protocol by scoring the extent of body weight loss, stool guaiac positivity or gross bleeding, and stool consistency according to the method described in Murthy et al. (1993) “Treatment of Dextran Sulfate Sodium-Induced Murine Colitis by Intracolonic Cyclosporin,” Digest. […] Stool consistency and the degree of blood in stool were evaluated on the day when animals were killed. […]

CD115+ MDSCs = conditions: FIG. 9B
Experimental: IL-10 and IFN-γ levels in the supernatant were measured by ELISA.

[2] = tested on: TLR 2, 3, and 4 expression in MDSCs; conditions: microarray analysis
Excerpt: Five days later, cells were harvested and stained with anti-CD4-FITC+anti-CD25-APC+anti-Foxp3-PE or isotype controls followed by flow cytometry.

normal CD115+ monocytes = experiment: Normal monocyte assay: Treg induction in co-culture with normal monocytes; assay type: cell-based, mouse; conditions: monocytes:CD4 OTII TCR splenocytes 1:4, five days, FIG. 2
Excerpt: CD115+ MDSCs and normal CD115+ monocytes were isolated from the bone marrows of tumor-bearing and naive Balb/c mice, respectively, and were co-cultured with CD4 OTII TCR transgenic splenocytes at a ratio of 1:4 in the absence or presence of GA, SP600125, or both.
To verify whether the enhancement of suppressive activities (suppression of T-cell proliferation and Treg cell induction) by GA and SP600125 is specific to MDSCs, the Treg cell inducing activity of normal CD115+ monocytes from naive mice was analyzed in the presence of GA and SP600125.

**Q.** For “L-glutamic acid polymer with L-alanine, L-lysine and L-tyrosine, acetate (salt) [GA]”, which “efficacy for treating multiple sclerosis” value (multiple sclerosis) is on record?
**A.** only partially effective

**Q.** And the “efficacy for treating IBD” value (IBD)?
**A.** failed to treat IBD

**Q.** What about the “IL-6 production by MDSCs” value (Gr-1+CD115+ MDSCs) of the same substance?
**A.** decreasing

**Q.** What about the “IL-23 production by MDSCs” value (Gr-1+CD115+ MDSCs) of the same substance?
**A.** decreasing

**Q.** And the “secretion of IL-10 by MDSCs” value (Gr-1+CD115+ MDSCs)?
**A.** enhancing

**Q.** And the “secretion of TGF-β by MDSCs” value (Gr-1+CD115+ MDSCs)?
**A.** enhancing

**Q.** What about the “MDSC-mediated Treg cell induction in the absence of TRIF” value [1] of the same substance?
**A.** cannot enhance

**Q.** What about the “decrease in colonic length” value (DSS-induced colitis; day 11, in comparison with naive healthy mice, FIG. 5C) of the same substance?
**A.** 45%

**Q.** What about the IBD clinical score (DSS-induced colitis; scale 0-4, 3.5% DSS day 0 to 11, GA s.c., SP600125 i.p. daily, MDSCs 5×10^6 i.v. days 0 and 7, FIG. 5A) of the same substance?
**A.** did not significantly lower

**Q.** What about the “IFN-γ production induced by LPS in MDSCs” value (CD115+ MDSCs; 100 ng/mL LPS, 30 hours, ELISA) of the same substance?
**A.** significantly reduced

**Q.** What about the “IL-10 production by MDSCs” value (CD115+ MDSCs; with LPS) of the same substance?
**A.** favors IL-10 production

**Q.** And the “levels of TLR 2, 3, and 4 expression in MDSCs” value [2]?
**A.** significant reduction

**Q.** What about the “percentage of CD4+CD25+Foxp3+ Treg cells in the co-culture with normal monocytes” value (normal CD115+ monocytes) of the same substance?
**A.** slightly increased
